Experimental data from PMC8773749, “Combinatorial Virtual Screening Revealed a Novel Scaffold for TNKS Inhibition to Combat Colorectal Cancer” (Biomedicines, 2022).

What was measured:
TNKS-1 [1] = biological target: T1, TNKS-1 (Homo sapiens, UniProt O95271); test: TNKS-1 histone ribosylation colorimetric assay, single concentration […]; format: biochemical
TNKS-1 [2] = biological target: T1, TNKS-1; test: TNKS-1 histone ribosylation colorimetric assay (BPS Bioscience kit); format: biochemical

T1 sequence (O95271 whole entry): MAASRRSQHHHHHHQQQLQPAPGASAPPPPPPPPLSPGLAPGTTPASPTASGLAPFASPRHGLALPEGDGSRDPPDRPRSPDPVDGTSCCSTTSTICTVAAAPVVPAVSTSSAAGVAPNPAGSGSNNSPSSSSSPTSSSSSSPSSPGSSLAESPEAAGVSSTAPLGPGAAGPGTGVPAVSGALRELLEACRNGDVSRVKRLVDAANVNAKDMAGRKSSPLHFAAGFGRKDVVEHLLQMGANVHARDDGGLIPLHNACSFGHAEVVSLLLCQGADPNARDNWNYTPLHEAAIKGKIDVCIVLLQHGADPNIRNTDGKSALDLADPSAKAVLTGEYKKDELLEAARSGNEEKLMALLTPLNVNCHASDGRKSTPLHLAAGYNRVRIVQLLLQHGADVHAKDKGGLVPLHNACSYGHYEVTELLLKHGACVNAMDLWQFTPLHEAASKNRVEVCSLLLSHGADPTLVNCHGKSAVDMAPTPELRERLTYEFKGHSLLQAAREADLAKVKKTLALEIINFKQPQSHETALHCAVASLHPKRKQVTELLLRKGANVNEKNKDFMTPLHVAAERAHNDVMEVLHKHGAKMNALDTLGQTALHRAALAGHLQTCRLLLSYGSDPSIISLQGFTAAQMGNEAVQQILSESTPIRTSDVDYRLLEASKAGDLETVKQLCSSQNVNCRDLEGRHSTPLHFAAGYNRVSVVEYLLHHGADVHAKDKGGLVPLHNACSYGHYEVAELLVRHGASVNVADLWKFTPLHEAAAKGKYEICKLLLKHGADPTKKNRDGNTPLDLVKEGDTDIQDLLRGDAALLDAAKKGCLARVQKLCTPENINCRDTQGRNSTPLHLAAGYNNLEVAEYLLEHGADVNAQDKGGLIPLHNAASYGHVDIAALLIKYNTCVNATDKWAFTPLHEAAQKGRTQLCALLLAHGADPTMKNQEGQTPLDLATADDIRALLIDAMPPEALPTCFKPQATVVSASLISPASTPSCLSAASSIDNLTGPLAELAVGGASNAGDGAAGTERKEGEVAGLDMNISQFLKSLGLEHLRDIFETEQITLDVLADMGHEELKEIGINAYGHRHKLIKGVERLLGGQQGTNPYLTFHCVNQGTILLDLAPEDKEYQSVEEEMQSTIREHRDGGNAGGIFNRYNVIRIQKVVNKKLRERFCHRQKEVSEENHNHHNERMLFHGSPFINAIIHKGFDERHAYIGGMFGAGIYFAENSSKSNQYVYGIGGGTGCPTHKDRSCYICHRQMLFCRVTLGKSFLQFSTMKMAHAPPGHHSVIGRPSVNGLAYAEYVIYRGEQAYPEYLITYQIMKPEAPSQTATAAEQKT

Compound | % of Inhibition at 10 μM / TNKS-1 ^c (TNKS-1 [1]) | IC50 (TNKS-1 [2]) [nM]
CN(C)c1ccc2c(c1)oc(=O)c1ccccc12 [NSC102371] | 88.54 | 
COc1ccc(-c2cc3ccccc3c(=O)o2)cc1 [NSC123012] | 50.92 | 
Cc1c(C)c2ccc(N(C)C)cc2[nH]c1=O [NSC295092] |  | 66.1
CN(C)c1ccc2c3c(c(=O)oc2c1)CCC3 [NSC315247] | 60.07 | 
Cc1c(Cl)c2ccc(N(C)C)cc2[nH]c1=O [NSC319963] |  | 21.9
